Data taken from PMC4818757, “Small molecule inhibitors of the Dishevelled‐CXXC5 interaction are new drug candidates for bone anabolic osteoporosis therapy” (EMBO Molecular Medicine, 2016).
Read-outs that look alike come from different tables or passages of the source.

What was measured:
primary calvaria cells = experiment: MTT cell viability of primary calvaria cells; type: cell-based, mouse; conditions: 2 μM
Method: Appendix Figure S2. The effects of Dvl-CXXC5 binding small molecule inhibitors on primary calvaria cells.
A Primary calvaria cells were treated with 2 µ M of each compound for the indicated times. The cells were subjected to an MTT assay (OD590 reading) to measure cell viability. The data are the mean ± s.d. (error […]
B Primary calvaria cells were treated with 2 µ M of each compound for 4 days. ALP activity levels were visualized by ALP staining. [n =2]
(1 picture or pasted object on this page, not shown here)

Dvl–CXXC5 interaction = target: T1, Dvl–CXXC5 interaction (Homo sapiens, UniProt O14640); experiment: Dvl–CXXC5 in vitro binding assay (FITC PolyR-DBM competition)
T1 construct: plasmid DNA encoding Dvl-1247- 341 (the Dvl PDZ domain); His-tag (TEV-cleavable) (cleaved yes); made in house; host or cells: E. coli BL21 (DE3)
T1 sequence (O14640 247-341 limits assumed): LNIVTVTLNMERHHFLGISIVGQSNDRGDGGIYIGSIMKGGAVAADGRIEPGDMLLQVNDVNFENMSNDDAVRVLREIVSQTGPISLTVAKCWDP
Source text: We tried to search small‐molecule drug candidates activating the Wnt/β‐catenin signaling on the basis of the previous study (Kim et al, 2015). To screen small molecules inhibiting the Dvl–CXXC5 interaction, an in vitro assay system (Fig 1A) was established using purified recombinant Dvl PDZ domain and FITC‐conjugated PolyR‐DBM (Dvl binding motif) (Kim et al, 2015). A chemical with inhibitory activity of Dvl–CXXC5 interaction competes with the FITC‐conjugated peptide for binding to Dvl PDZ domain, which results in a decrease in fluorescence intensity of the well containing the chemical (Fig 1A).
Figure 1 Identification and characterization of small molecules competing Dvl–CXXC5 binding in vitro • A A scheme for in vitro screening method of small molecules competing Dvl–CXXC5 binding. Briefly, purified Dvl PDZ domain was attached to the polystyrene surface of each well of 96‐well plates. Then, PolyR‐DBM (polyarginine‐conjugated Dvl binding motif tagged with FITC) (Kim et al, 2015) was added to each well and allowed to bind to the Dvl PDZ domain; 10 μM small‐molecule compound was added to each well, and the compounds competing with Dvl PZD‐PolyR‐DBM binding were measured by a microplate reader to screen the compounds reducing fluorescence signal. • B Screening results of compounds competing Dvl–CXXC5 interaction. Each 2 μM of the compounds was used for competing as described in Fig 1A. (n = 3) • C, D Primary calvaria cells were treated with 2 μM of each compound for 2 days. The cells were subjected to immunofluorescence analyses to visualize β‐catenin (C; green). The relative numbers of β‐catenin‐positive nuclei were counted (D). (n = 3) • E, F The calvariae from 4‐day‐old mice were cultured ex vivo for 7 days with 2 μM of each compound. Representative calvaria sections were visualized by H&E staining (E). The calvaria thicknesses were measured from the images using Image Pro software (F). (n = 3) Data Information: For B, D, and F, the data are the mean ± s.d. (error bars), and significance was assessed using unpaired Student's t‐test.
For the Dvl–CXXC5 in vitro binding assay, 100 μl of 5 mg/ml purified Dvl PDZ domain was added into each well of a 96‐well Maxibinding Immunoplate (SPL, Seoul, Korea) and incubated overnight in a 4°C chamber. […] After washing with PBS, the fluorescence of each well was measured using a Fluorstar Optima microplate reader (BGM Lab Technologie, Ortenberg, Germany). […]
a The Dvl-CXXC5 in vitro binding assay was performed with 0.1, 1, 3, 10, 30 and 100 µ M of each compound. The IC50 values were calculated using linear regression. b MC3T3E1 cells were cultured in differentiation media with 10 µM of each compound for 4 days and ALP activity levels were quantified to monitor osteogenic differentiation of the cells. […]

[1] = Metabolic stability, human hepatocytes; type: in vitro ADME
MC3T3E1 cells = experiment: Relative ALP activity in MC3T3E1 cells; type: cell-based, murine; conditions: differentiation media, 10 M of each compound, 4 days
Source text: Railo et Rev: [NT] al, 2009 Fos-like antigen 1 […] et al, 2003 WNT1 inducible [NT] Railo et signaling pathway Rev: [NT] al, 2009 protein 1 (Wis p1) Activating […] transcription factor Rev: […], 4 (Atf 4) 2007 Cyclin-dependent [NT] Donovan TGFβ kinase inhibitor 1B Rev: [NT] et al, 2002 (Cdkn1b) […] membrane Rev: […], protein 1 (Emp1) 2007 8

[2] = target: Human Ether-à-go-go Related Gene (hERG) potassium channel (Homo sapiens, UniProt Q12809); experiment: hERG binding assay (fluorescence polarization)
[3] = tested on: normal or cancer cells derived from various tissues; experiment: MTT assay on various normal or cancer cells; type: cell-based
Method: (amino acids 1-34) was subcutaneously injected into the Sham-operated
(Sham) or ovariectomized (OVX) mice on 5 sequential days per week for 4 weeks [n =4]. During treatment, the weights of each mouse were measured and recorded every week (A). After 4 weeks treatment, mice were scarified and their organs were subjected to histological analyses.
Hematoxylin and Eosin staining of liver (B), lung (C), and spleen (D).
E Various cells were treated with DMSO or 0.1, 1, or 10 µ M KY-02327.
After 48 hours, cells were subjected to an MTT assay (OD590 reading) to measure cell viability. NSC: neural stem cell, OB: osteoblast, MSC: mesenchymal stem cell. The data are the mean ± s.d. (error bars). [n =3]

Chain of Human Ether-à-go-go Related Gene (hERG) potassium channel (Q12809 whole entry): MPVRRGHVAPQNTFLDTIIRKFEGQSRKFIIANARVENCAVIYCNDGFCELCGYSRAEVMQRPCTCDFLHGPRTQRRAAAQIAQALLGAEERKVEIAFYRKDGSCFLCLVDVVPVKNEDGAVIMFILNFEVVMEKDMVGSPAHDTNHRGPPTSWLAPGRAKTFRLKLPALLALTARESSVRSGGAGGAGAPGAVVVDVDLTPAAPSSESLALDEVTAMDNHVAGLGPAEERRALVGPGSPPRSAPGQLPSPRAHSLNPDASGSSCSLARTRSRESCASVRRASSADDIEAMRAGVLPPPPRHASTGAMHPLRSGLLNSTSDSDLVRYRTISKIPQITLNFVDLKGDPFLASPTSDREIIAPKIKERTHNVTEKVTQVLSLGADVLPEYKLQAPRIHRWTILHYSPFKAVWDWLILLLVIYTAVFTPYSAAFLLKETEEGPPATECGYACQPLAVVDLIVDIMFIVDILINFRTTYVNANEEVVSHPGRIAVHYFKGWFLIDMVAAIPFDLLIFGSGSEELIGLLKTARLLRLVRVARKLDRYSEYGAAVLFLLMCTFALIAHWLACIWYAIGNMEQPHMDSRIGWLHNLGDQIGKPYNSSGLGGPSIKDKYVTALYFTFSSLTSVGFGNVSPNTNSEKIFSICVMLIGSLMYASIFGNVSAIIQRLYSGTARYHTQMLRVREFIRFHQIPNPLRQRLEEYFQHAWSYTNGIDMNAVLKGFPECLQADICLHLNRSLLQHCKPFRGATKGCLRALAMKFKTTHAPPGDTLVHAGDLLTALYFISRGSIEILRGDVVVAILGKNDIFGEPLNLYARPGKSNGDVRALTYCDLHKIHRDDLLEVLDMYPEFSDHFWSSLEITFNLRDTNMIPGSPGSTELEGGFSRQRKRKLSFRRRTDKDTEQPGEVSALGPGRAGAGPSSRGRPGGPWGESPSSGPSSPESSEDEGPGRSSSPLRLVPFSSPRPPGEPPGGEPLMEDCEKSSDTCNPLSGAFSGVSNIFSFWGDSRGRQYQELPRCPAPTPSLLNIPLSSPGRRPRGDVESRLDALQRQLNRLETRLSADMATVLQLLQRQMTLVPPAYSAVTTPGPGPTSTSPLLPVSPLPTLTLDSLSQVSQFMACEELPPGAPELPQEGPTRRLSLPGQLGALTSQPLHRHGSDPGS

reduction of fluorescence intensity (Dvl–CXXC5 interaction; 2 μM compound) | IC50 (Dvl–CXXC5 interaction; read-out: 50% inhibition concentration (IC50) of Dvl–CXXC5 interaction) | Metabolic Stability (%) Human [1] | metabolic stability (in words) [1] | SMILES | cytotoxic effect (cell number and viability) (primary calvaria cells) | Relative ALP activity (%) (MC3T3E1 cells) | cardiotoxicity (hERG potassium channel inhibition test) [2] | IC50 (Dvl–CXXC5 interaction; 0.1, 1, 3, 10, 30 and 100 µM of each compound, linear regression, read-out: Dvl-CXXC5 in vitro binding IC50) | IC50 for inhibition of Dvl–CXXC5 interaction, fold lower than for KY‐02061 (Dvl–CXXC5 interaction; vs KY‐02061) | toxic effect on cell viability (MTT) ([3]; 0.1, 1, or 10 M, 48 hours) | proliferation of MC3T3E1 cells (MTT) ([3]; MC3T3E1) | proliferation of murine primary osteoblasts (OB) ([3]; OB) | stability, fold more stable than KY‐02061 [1]
43.7% | 24 µM | 25.2 ± 3% | poor metabolic stability | CCOC(=O)Cn1c(C(=O)OCC)cc2cc(OS(=O)(=O)c3ccc(C)cc3)ccc21 [KY‐02061] | without any cytotoxic effect | 173% |  |  |  |  |  |  | 
 |  |  |  | CCOC(=O)c1cc2cc(O)ccc2n1CC(=O)NCCN1CCCCC1 [KY‐02327] |  | 227% | did not show any significant cardiotoxicity | 3.1 µM | 7.7 fold | no significant toxic effect | did not significantly affect | unaffected | 1.3 fold
